In ChEMBL document CHEMBL1201862, “PubChem BioAssay data set” (2004):
Calls of active or inactive are those of the source.

Key:
[1] = biological target: T1, Delta-type opioid receptor (Homo sapiens, UniProt P41143); experiment: DOR agonists, SAR follow-up, image-based (AID 2370); format: functional
Mu-type opioid receptor [2] = biological target: T2, Mu-type opioid receptor (Homo sapiens, UniProt P35372); experiment: mu opioid receptor activators, image-based, SAR follow-up (AID 2352); format: functional
T2 sequence (P35372 whole entry): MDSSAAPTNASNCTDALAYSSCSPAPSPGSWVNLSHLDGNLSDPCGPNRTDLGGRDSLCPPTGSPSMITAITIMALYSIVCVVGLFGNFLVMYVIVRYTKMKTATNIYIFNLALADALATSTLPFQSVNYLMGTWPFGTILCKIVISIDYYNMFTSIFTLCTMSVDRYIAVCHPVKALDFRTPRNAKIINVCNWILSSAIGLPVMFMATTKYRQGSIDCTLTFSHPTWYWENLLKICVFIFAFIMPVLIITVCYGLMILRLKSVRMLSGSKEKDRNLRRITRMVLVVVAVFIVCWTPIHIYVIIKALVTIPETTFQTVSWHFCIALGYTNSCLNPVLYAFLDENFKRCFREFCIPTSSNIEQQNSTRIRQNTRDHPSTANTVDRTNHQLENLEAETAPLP

[3] = biological target: T3, Kappa-type opioid receptor (Homo sapiens, UniProt P41145); experiment: kappa opioid receptor activation potency – imaging, image-based, SAR follow-up (AID 2359); format: functional
T3 sequence (P41145 whole entry): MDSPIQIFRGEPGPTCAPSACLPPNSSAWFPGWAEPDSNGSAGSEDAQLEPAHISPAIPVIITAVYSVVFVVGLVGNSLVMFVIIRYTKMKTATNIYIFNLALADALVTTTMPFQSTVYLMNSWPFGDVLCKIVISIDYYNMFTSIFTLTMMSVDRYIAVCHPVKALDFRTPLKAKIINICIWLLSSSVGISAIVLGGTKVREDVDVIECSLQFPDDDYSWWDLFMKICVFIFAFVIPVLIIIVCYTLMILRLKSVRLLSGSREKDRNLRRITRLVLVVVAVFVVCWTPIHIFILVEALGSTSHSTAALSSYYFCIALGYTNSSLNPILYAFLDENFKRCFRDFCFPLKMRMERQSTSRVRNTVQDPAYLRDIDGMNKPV

[4] = biological target: T1, Delta-type opioid receptor; experiment: delta opioid receptor blockers – image-based, SAR follow-up (AID 2357); format: functional
[5] = biological target: T3, Kappa-type opioid receptor; experiment: kappa opioid receptor blockers, image-based, SAR follow-up (AID 2348); format: functional
[6] = biological target: T3, Kappa-type opioid receptor; experiment: kappa opioid receptor blockers, cell-based, luminescence, beta-arrestin, SAR follow-up (AID 2285); format: functional
Mu-type opioid receptor [7] = biological target: T2, Mu-type opioid receptor; experiment: mu opioid receptor blockers – image-based, SAR follow-up (AID 2420); format: functional;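 also: compounds added before stimulation of receptor with agonist DAMGO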
cells [8] = format: functional, cell-based
Caspase-6 = Caspase-6 (Homo sapiens, UniProt P55212); experiment: inhibition of CASP6 peptide cleavage – biochemical, VEID-R110 fluorescence, cherry-pick, dose response (AID 720632)
Chain of Caspase-6 (P55212 24-179 limits assumed): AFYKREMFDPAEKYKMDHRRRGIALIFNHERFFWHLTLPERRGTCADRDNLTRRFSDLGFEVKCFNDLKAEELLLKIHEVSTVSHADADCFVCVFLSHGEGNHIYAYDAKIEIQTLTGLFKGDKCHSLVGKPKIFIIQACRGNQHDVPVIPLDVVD
Chain of Caspase-6 (P55212 194-293 limits assumed): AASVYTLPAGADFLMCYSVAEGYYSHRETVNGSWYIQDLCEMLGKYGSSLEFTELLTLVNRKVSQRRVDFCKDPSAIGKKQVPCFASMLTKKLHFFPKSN

Vero = experiment: viability of Vero cells under compound – cytotoxicity control for flavivirus capping enzyme inhibitors (AID 588742); format: functional; conditions: Chlorocebus sabaeus
[9] = biological target: T4, Histone-lysine N-methyltransferase NSD2 (Homo sapiens, UniProt O96028); format: biochemical
T4 sequence (O96028 whole entry): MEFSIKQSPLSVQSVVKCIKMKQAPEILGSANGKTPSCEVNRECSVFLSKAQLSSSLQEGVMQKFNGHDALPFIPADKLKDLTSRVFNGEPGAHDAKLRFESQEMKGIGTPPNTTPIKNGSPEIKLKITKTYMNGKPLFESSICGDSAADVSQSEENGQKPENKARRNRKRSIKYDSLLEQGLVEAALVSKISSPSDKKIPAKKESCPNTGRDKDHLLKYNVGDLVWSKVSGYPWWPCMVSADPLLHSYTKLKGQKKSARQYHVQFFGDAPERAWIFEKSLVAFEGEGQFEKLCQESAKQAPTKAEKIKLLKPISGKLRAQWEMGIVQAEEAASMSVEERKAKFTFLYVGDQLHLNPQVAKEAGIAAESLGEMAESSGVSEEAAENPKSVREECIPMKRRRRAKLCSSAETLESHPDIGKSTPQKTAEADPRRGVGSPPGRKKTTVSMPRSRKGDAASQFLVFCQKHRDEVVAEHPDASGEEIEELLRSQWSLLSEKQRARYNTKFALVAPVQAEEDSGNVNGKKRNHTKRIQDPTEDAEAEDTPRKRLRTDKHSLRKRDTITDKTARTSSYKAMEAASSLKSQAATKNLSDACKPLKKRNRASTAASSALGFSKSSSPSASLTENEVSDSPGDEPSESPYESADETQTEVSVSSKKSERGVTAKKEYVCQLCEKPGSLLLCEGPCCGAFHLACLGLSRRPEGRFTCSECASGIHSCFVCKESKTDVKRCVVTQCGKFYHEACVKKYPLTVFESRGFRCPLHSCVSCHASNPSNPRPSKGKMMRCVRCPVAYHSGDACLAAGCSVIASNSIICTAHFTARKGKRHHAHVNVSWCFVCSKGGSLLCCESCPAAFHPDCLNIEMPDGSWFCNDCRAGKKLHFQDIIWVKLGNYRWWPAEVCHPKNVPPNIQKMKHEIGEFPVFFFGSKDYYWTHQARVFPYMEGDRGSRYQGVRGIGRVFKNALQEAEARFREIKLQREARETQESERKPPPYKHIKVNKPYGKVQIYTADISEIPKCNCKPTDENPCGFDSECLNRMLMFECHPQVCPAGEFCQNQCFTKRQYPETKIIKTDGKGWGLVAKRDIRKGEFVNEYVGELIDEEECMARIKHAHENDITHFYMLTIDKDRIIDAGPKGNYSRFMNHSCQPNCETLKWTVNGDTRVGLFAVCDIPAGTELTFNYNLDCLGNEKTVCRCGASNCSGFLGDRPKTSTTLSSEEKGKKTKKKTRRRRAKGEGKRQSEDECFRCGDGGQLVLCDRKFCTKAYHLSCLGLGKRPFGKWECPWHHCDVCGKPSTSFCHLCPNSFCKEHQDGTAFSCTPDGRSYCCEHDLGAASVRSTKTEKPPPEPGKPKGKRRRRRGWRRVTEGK

[10] = biological target: T5, Trace amine-associated receptor 1 (Homo sapiens, UniProt Q96RJ0); experiment: Counterscreen for agonists of the human trace amine associated receptor 1 (hTAAR1): Fluorescence-based cell-based high throughput dose response assay to identify hTAAR1 agonist that also desensitize TAAR1 receptor response.; format: functional
T5 sequence (Q96RJ0 whole entry): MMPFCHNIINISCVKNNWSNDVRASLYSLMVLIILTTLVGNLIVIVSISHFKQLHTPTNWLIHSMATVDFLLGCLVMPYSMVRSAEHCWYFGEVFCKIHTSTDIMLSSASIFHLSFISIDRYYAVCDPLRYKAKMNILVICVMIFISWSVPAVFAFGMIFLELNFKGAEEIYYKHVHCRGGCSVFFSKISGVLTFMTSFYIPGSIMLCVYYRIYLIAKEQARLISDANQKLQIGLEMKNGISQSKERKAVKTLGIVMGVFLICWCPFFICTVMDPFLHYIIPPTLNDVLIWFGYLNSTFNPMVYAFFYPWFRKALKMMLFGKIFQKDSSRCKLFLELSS

[11] = biological target: Intestinal-type alkaline phosphatase (Homo sapiens, UniProt P09923); experiment: inhibition of human intestinal alkaline phosphatase – biochemical, dose response (AID 488876); format: functional
cells [12] = format: functional, cell-based; remark: listed apart in the source
[13] = biological target: Intestinal-type alkaline phosphatase (Mus musculus, UniProt P24822); experiment: PubChem AID 488785; format: functional
[14] = biological target: T6, Alkaline phosphatase, tissue-nonspecific isozyme (Homo sapiens, UniProt P05186); experiment: TNAP enzyme inhibition by screening hits, dose response, selectivity assay for mouse IAP inhibitor project, biochemical, human TNAP, uHTS hits (AID 488906); format: functional
T6 sequence (P05186 whole entry): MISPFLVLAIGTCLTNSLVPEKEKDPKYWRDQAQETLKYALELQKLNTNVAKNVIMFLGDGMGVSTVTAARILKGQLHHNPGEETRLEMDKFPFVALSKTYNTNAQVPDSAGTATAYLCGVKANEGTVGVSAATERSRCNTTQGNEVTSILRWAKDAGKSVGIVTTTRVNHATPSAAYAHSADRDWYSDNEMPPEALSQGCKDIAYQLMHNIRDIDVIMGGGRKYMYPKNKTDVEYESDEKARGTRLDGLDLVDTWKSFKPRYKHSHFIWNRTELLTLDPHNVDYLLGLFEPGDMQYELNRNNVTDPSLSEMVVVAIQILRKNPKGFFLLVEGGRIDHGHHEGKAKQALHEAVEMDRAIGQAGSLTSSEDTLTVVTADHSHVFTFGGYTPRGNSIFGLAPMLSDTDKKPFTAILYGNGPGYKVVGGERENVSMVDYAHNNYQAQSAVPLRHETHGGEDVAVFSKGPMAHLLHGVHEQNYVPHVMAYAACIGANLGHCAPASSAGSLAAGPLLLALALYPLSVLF

[15] = biological target: T5, Trace amine-associated receptor 1; experiment: Fluorescence-based cell-based high throughput dose response assay to identify agonists of the human trace amine associated receptor 1 (TAAR1).; format: functional
[16] = viability loss in THP-1 monocytes – THP-1 cells, cytotoxicity control for Vif-APOBEC3G degradation inhibitor project, dose response (AID 1117359); format: functional; conditions: THP-1
[17] = viability of uninfected HEp-2 cells – cell-based, HTS, cytotoxicity control for RSV inhibitor project, dose response (AID 2410); format: functional; conditions: human respiratory syncytial virus
[18] = Counterscreen for AddAB inhibitors: absorbance-based bacterial cell-based high throughput dose response assay for inhibitors of bacterial viability. [Related pubchem assays (depositor defined):AID435030, AID449728, AID449731, AID488942, AID488955, AID488956]; format: functional
[19] = Luminescence Cell-Based Dose Retest to Confirm Inhibitors of Cancer Stem Cells. [Related pubchem assays (depositor defined):AID2717, AID2721]; format: functional; conditions: Homo sapiens
Exodeoxyribonuclease V = Exodeoxyribonuclease V (Escherichia coli (strain K12), UniProt P04993+P07648+P08394); experiment: RecBCD inhibition via phage-restricted bacterial growth – absorbance, V66 E. coli, mutant T4 phage, counter-screen for AddAB inhibitor project, dose response (AID 492957); format: functional, cell-based, Escherichia coli str. K-12 substr. MG1655
[20] = microbe, parasite or virus in culture; format: functional; conditions: Mycobacterium tuberculosis
[21] = biological target: Voltage-dependent T-type calcium channel subunit alpha-1H (Homo sapiens, UniProt O95180); experiment: inhibition of CACNA1H calcium flux – cell-based, SynthLib3 library, HEK293 Cav3.2, fluorescence (AID 493041); format: functional
Chain of Voltage-dependent T-type calcium channel subunit alpha-1H (O95180 whole entry): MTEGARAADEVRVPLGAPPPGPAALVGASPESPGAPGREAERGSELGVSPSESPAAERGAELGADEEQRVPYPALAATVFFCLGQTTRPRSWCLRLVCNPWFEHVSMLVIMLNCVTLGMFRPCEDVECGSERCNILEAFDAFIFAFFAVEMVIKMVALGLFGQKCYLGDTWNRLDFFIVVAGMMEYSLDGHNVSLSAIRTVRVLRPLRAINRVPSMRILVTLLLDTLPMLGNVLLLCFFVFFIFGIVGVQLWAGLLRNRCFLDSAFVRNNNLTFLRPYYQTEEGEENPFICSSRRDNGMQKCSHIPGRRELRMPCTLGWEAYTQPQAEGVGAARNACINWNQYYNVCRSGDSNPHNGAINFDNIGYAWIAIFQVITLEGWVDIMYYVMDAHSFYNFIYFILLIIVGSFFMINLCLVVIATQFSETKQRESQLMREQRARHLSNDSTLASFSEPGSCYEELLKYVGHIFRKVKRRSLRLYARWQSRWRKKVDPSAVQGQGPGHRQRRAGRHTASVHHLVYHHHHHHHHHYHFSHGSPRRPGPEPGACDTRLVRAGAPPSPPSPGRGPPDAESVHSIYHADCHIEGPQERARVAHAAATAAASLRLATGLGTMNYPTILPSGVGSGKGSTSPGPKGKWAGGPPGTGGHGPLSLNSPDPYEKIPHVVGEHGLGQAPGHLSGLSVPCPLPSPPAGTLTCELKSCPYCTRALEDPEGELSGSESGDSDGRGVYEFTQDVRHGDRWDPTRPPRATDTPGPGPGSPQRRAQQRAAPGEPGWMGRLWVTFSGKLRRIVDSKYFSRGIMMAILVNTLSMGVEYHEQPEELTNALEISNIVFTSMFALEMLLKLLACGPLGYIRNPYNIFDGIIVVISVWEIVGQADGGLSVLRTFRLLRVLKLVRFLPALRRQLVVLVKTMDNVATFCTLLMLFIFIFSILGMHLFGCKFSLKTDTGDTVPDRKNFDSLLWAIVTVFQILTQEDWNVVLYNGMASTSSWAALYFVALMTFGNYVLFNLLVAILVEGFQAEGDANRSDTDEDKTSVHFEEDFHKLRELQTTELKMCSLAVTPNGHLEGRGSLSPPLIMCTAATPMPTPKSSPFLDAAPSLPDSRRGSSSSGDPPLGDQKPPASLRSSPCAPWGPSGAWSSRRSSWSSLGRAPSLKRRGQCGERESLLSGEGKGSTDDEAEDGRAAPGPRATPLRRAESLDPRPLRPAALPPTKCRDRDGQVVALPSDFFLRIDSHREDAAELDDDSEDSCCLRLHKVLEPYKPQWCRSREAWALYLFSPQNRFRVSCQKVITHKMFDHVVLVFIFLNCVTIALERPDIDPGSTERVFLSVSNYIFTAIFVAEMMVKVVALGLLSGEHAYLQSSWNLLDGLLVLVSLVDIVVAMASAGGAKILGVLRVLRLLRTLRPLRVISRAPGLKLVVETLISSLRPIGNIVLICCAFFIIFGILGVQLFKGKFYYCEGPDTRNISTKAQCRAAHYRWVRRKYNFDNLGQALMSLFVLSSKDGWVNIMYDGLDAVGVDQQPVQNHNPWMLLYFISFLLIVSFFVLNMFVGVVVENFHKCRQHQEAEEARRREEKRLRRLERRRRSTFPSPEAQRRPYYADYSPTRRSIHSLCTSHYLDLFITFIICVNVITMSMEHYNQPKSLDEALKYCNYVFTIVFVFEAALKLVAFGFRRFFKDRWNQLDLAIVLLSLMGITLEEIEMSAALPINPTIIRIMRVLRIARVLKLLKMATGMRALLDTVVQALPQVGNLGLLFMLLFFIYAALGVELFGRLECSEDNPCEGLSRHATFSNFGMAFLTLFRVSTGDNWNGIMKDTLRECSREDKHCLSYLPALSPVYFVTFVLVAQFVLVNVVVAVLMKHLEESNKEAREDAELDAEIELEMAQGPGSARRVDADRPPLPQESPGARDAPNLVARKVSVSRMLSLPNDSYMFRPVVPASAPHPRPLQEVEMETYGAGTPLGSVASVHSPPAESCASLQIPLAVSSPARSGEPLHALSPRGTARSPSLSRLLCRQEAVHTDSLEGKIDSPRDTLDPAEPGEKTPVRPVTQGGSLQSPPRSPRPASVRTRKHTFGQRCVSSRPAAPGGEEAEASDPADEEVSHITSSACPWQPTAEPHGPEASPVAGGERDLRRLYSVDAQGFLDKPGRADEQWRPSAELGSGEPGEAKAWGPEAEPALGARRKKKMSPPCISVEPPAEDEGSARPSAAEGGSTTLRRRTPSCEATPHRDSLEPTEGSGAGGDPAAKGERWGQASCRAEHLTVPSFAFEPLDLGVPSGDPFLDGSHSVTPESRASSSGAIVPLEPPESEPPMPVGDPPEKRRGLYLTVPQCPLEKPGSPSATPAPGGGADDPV

Protein Wnt-3a = Protein Wnt-3a (Mus musculus, UniProt P27467); experiment: antagonism of Wnt3a pathway luciferase reporter – Wnt-LIGHT cells, luminescence, selectivity assay for Gli-SUFU antagonist project, dose response (AID 651570); format: functional; conditions: read-out: IC50_Mean;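 also: Wnt-LIGHT reporter cells stimulated with conditioned medium from Wnt3a-producing cells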
[22] = MIN6 cell viability loss – mouse insulinoma, cytotoxicity control, dose response (AID 2122); format: functional;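 also: confirmatory high-throughput counterscreen run to flag cytotoxic compounds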
[23] = decrease of insulin promoter-GFP reporter – imaging, high-content screening, mouse beta cells (AID 1628); format: functional; conditions: MIN6
[24] = biological target: G-protein coupled receptor 55 (Homo sapiens, UniProt Q9Y2T6); experiment: blockers of GPR55 signalling, imaged – imaging, image-based, counter-screen for GPR35 antagonist project, SAR follow-up (AID 2397); format: functional
[25] = biological target: Lysine-specific demethylase 4C (Homo sapiens, UniProt Q9H3R0); experiment: inhibition of JMJD2C H3K9me3 demethylation – biochemical, DELFIA europium, cherry-picked samples, dose response (AID 488835); format: functional
Chain of Lysine-specific demethylase 4C (Q9H3R0 whole entry): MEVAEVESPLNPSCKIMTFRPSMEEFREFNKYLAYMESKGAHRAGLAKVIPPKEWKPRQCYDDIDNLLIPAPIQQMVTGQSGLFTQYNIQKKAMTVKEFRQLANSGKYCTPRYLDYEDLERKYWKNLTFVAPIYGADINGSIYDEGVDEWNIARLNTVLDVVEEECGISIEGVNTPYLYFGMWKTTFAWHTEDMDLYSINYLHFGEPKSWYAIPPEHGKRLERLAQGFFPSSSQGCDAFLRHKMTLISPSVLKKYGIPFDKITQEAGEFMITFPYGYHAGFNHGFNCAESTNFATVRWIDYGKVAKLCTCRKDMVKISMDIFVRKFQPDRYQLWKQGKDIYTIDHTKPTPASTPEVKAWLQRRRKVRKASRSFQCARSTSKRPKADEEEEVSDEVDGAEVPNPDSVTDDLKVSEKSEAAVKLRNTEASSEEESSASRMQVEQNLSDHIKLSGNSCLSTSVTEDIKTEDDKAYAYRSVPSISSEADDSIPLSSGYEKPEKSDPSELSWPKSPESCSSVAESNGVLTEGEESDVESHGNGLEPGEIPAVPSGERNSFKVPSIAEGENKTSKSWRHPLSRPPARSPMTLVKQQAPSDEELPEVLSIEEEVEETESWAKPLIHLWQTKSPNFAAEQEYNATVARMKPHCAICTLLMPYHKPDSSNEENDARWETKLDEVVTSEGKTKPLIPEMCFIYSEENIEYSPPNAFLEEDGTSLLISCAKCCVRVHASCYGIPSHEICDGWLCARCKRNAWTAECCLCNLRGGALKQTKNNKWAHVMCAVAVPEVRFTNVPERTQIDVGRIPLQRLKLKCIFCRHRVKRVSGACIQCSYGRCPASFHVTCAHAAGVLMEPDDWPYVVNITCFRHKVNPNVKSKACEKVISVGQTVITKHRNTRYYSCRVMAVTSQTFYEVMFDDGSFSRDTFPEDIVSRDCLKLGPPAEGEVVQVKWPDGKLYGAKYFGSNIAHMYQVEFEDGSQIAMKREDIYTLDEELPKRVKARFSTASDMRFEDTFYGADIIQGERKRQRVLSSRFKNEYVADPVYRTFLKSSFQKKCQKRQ

T1 sequence (P41143 whole entry): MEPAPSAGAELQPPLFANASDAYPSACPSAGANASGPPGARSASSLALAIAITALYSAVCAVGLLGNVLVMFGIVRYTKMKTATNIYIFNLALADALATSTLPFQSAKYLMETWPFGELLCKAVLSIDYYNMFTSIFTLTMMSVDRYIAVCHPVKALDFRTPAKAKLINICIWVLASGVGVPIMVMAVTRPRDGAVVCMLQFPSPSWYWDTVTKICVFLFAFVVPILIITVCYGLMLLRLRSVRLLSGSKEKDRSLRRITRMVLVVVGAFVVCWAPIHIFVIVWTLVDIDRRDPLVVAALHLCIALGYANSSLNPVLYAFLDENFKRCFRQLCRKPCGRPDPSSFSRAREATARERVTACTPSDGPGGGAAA

For `CCC(=NNc1ccnc2cc(Cl)ccc12)c1ccc(O)cc1`, the EC50 [1] was 30.7 µM (inactive), the EC50 (Mu-type opioid receptor [2]) was 25.3 µM (inactive) and the EC50 [3] was > 32 µM (inactive). The IC50 [4] was > 32 µM (inactive), the IC50 [5] was 3.62 µM (active) and the IC50 [6] was 3.54 µM (active). The IC50 (Mu-type opioid receptor [7]) was > 32 µM (inactive).
With `O=[N+]([O-])c1ccccc1NC(=S)N/N=C/c1ccc(O)c(O)c1` the EC50 (cells [8]) was > 29.9 µM (inactive), the AC50 (Caspase-6) was 1.56 µM (active) and the CC50 (Vero) was 22.8 µM (active). For the same molecule, the AC50 [9] was 1.34 µM (active), the IC50 [10] was 7.2 µM (active) and the IC50 [11] was > 100 µM (inactive). For the same molecule, the IC50 (cells [12]) was 23.5 µM (inactive), the IC50 [13] was 216 nM (active) and the IC50 [14] was 1.53 µM (active). For the same molecule, the EC50 [15] was 4.15 µM (active), the CC50 [16] was 25.5 µM (active) and the CC50 [17] was 11.7 µM (active).
With `O=C(CSc1[nH]cnc2ncnc1-2)c1ccc(Cl)cc1` the IC50 [18] was 61.1 µM (inactive), the AC50 [19] was 2.81 µM (active) and the IC50 (Exodeoxyribonuclease V) was > 119 µM (inactive). The CC50 [20] was > 40 µM (active).
With `CC(C)Cc1nnc(NC(=O)COc2ccc(F)cc2Cl)o1` the EC50 [21] was 10 µM (active).
With `COc1ccc(NS(=O)(=O)c2ccc(NC(C)=O)cc2)cc1OC` the IC50 (Protein Wnt-3a) was 12 µM (active), the IC50 [22] was 2.22 µM (active) and the IC50 [23] was 3.44 µM (active).
For `Cc1ccc(OCCC(=O)NCCc2ccc(S(N)(=O)=O)cc2)cc1`, the IC50 [24] was > 32 µM (inactive).
With `CS(=O)(=O)N(CC(=O)NCc1ccco1)c1ccccc1Cl` the AC50 [25] was 18.4 µM (active).
